In series [1] the test system is P. aeruginosa H1001 (fliC::luxCDABE). The format is cell-based, Pseudomonas aeruginosa. The note with it: SPOT-synthesized unpurified crude peptide (~70% purity); bioluminescent engineered P. aeruginosa; BM2 medium; 4 h, 37 °C; reduction of luminescence; 200 to 3 μg mL−1 tested. On the procedure:
A peptide array composed of 20 peptides (15 guavanins, 4 Pg-AMP1 fragments, and magainin 2) was designed and synthesized by Kinexus Bioinformatics Corporation (Vancouver, BC). Peptides were produced in a standard mass of 80 μg by using cellulose support in SPOT technology. The crude synthetic peptides were obtained from cellulose membrane discs that had already been treated with ammonia gas to release the peptides from the membrane. Peptides were then dissolved overnight in distilled water and subsequently evaluated for their biological activities, as described below.
The antimicrobial activity of the synthesized peptides was evaluated against an engineered luminescent P. aeruginosa H1001 (fliC::luxCDABE) strain in 96-well microplates. Aqueous solutions of peptides released from the cellulose spots were diluted twofold in BM2 medium [62 mM potassium phosphate buffer pH 7; 2 mM MgSO4; 10 μM FeSO4; 0.4% (wt/vol) glucose] down the eight wells of a 96-well plate, achieving a final volume of 25 μL in each well. Subsequently, 50 μL of overnight culture of P. aeruginosa H1001 (fliC::luxCDABE) were subcultured in 5 mL of fresh LB media and grown until they reached an OD600 of 0.4. This growing bacteria culture was then diluted 4:100 (v/v) into fresh BM2 media and 25 μL of this diluted bacterial culture was transferred to the microplate wells containing 25 μL of peptide solution. The final peptide concentrations tested ranged from 200 to 3 μg mL^−1. The plates were incubated for 4 h at 37 °C with constant shaking at 50 rpm. Luminescence was measured on a Tecan […]luor Plus Microplate Reader (Tecan US, Morrisville, NC). The antimicrobial activity was evaluated by the ability of the peptides to reduce the luminescence of P. aeruginosa-lux strain compared to untreated cells. The AMP magainin 2 and the carbapenem meropenem were used as positive controls and distilled water was used as a negative control.

For a further series, the system named is human erythrocytes. Nature of the series: Hemolytic assay. The note with it: SPOT-synthesized crude peptides; human red blood cells in NaCl 0.85%, 1 h, 37 °C; hemoglobin release at 546 nm; highest concentration 200 μg mL−1; 100% of hemolysis was not observed.

What is called MIC is the smallest concentration in the dilution series that meets the test's criterion for growth inhibition.

Structures are written as SMILES. Converted amounts (≈) assume the structure as drawn. Peptide text beside a SMILES is read from it.

Description for human erythrocytes: Fresh human venous blood was collected from volunteers in Vacutainer collection tubes containing sodium heparin as an anticoagulant (BD Biosciences, Franklin Lakes, NJ). The blood was centrifuged applying 151 × g force (1500 rpm) and the serum was removed and the blood cells were replaced and washed three times with the same volume of sterile NaCl 0.85% solution. Concentrated red blood cells were diluted tenfold in NaCl 0.85% solution and then exposed at twofold dilutions of peptides for 1 h at 37 °C, at identical concentrations used for antimicrobial assays, in the ratio of 1:1 (v/v), achieving a final volume of 100 μL. The assay was carried out in 96-well polypropylene microtiter plates. The positive control wells contained 1% of Triton X-100, representing 100% cell lysis, and negative control wells contained sterile saline. Hemoglobin release was monitored chromogenically at 546 nm using a microplate reader.

The compound `CSCC[C@H](NC(=O)[C@H](Cc1ccc(O)cc1)NC(=O)[C@H](CCCNC(=N)N)NC(=O)[C@@H](N)CCCNC(=N)N)C(=O)N[C@@H](CCC(=O)O)C(=O)N[C@@H](CS)C(=O)N[C@@H](Cc1ccc(O)cc1)C(=O)N[C@@H](CCC(=O)O)C(=O)N[C@@H](CCC(N)=O)C(=O)N[C@@H](C)C(=O)N[C@@H](CCC(=O)O)C(=O)N[C@@H](CCCNC(=N)N)C(=O)N[C@@H](Cc1ccc(O)cc1)C(=O)N[C@@H](Cc1ccccc1)C(=O)N[C@@H](CCCNC(=N)N)C(=O)N[C@@H](CCCNC(=N)N)C(=O)N[C@@H](Cc1ccccc1)C(=O)NCC(=O)N[C@@H](CCCNC(=N)N)C(=O)N[C@@H](CCCNC(=N)N)C(N)=O` [Guavanin 13] (H-RRYMECYEQAERYFRRFGRR-NH2) had an MIC in series [1] of 25 µg/mL (≈ 9.02 µM). Also, the Hemolysis in the series on human erythrocytes is above 200 µg/mL. In series [1], `CC[C@H](C)[C@H](NC(=O)[C@H](CCCNC(=N)N)NC(=O)[C@H](CC(N)=O)NC(=O)CNC(=O)[C@H](Cc1ccc(O)cc1)NC(=O)[C@H](CCCNC(=N)N)NC(=O)[C@H](CO)NC(=O)[C@H](C)NC(=O)[C@H](CCC(N)=O)NC(=O)[C@H](CCC(=O)O)NC(=O)[C@H](Cc1ccc(O)cc1)NC(=O)[C@H](CS)NC(=O)[C@H](CCCCN)NC(=O)[C@H](CCSC)NC(=O)[C@H](Cc1ccccc1)NC(=O)[C@H](CO)NC(=O)[C@@H](N)CCCNC(=N)N)C(=O)N[C@@H](CC(C)C)C(=O)N[C@@H](CCCNC(=N)N)C(=O)N[C@@H](CCCNC(=N)N)C(N)=O` [Guavanin 14] (H-RSFMKCYEQASRYGNRILRR-NH2) gave an MIC of 12.5 µg/mL (≈ 4.93 µM). Moreover, the Hemolysis in the series on human erythrocytes was above 200 µg/mL. As to `CC(C)C[C@H](NC(=O)[C@H](CCCCN)NC(=O)[C@@H](N)CCCNC(=N)N)C(=O)N[C@H](C(=O)N[C@@H](CCC(=O)O)C(=O)N[C@@H](CS)C(=O)N[C@@H](Cc1ccc(O)cc1)C(=O)N[C@@H](CCC(=O)O)C(=O)N[C@@H](CCCNC(=N)N)C(=O)N[C@@H](C)C(=O)N[C@@H](CCC(=O)O)C(=O)N[C@@H](CCCNC(=N)N)C(=O)N[C@@H](CC(=O)O)C(=O)N[C@@H](C)C(=O)N[C@@H](CC(N)=O)C(=O)N[C@@H](CCCNC(=N)N)C(=O)N[C@@H](CO)C(=O)NCC(=O)N[C@@H](CCCNC(=N)N)C(=O)N[C@@H](CCCNC(=N)N)C(N)=O)C(C)C` [Guavanin 15] (H-RKLVECYERAERDANRSGRR-NH2), in series [1], the MIC stood at 200 µg/mL (≈ 81.2 µM). The Hemolysis with human erythrocytes is above 200 µg/mL. On the same counts, the results for `CC[C@H](C)[C@H](NC(=O)CNC(=O)[C@H](CCCNC(=N)N)NC(=O)[C@H](CCC(N)=O)NC(=O)CNC(=O)[C@H](CCCCN)NC(=O)[C@H](CCCNC(=N)N)NC(=O)[C@H](CC(C)C)NC(=O)[C@H](C)NC(=O)[C@H](CCCNC(=N)N)NC(=O)[C@H](CCC(=O)O)NC(=O)[C@H](Cc1ccc(O)cc1)NC(=O)[C@H](C)NC(=O)[C@H](CCC(=O)O)NC(=O)[C@H](Cc1ccc(O)cc1)NC(=O)[C@H](Cc1ccc(O)cc1)NC(=O)[C@H](CO)NC(=O)[C@@H](N)CCCNC(=N)N)C(=O)N[C@@H](CCCNC(=N)N)C(=O)N[C@@H](CCCNC(=N)N)C(N)=O` [Guavanin 8] (H-RSYYEAYERALRKGQRGIRR-NH2) are 100 µg/mL (≈ 39.6 µM) and above 200 µg/mL. Turning to `CC[C@H](C)[C@H](NC(=O)[C@H](CO)NC(=O)[C@H](CCC(=O)O)NC(=O)[C@H](Cc1ccc(O)cc1)NC(=O)[C@@H](NC(=O)[C@H](CCC(N)=O)NC(=O)[C@@H](N)CCCNC(=N)N)[C@@H](C)CC)C(=O)N[C@@H](CCC(=O)O)C(=O)N[C@@H](CCC(N)=O)C(=O)N[C@@H](C)C(=O)N[C@@H](CC(C)C)C(=O)N[C@@H](CCCNC(=N)N)C(=O)N[C@@H](CCCNC(=N)N)C(=O)NCC(=O)N[C@@H](Cc1ccc(O)cc1)C(=O)N[C@@H](CCCNC(=N)N)C(=O)N[C@@H](CO)C(=O)N[C@@H](Cc1ccc(O)cc1)C(=O)N[C@@H](CCCNC(=N)N)C(=O)N[C@@H](CCCNC(=N)N)C(N)=O` [Guavanin 7] (H-RQIYESIEQALRRGYRSYRR-NH2), the MIC in series [1] came out at 200 µg/mL (≈ 76.9 µM). Moreover, in the series with human erythrocytes, the Hemolysis is above 200 µg/mL. In series [1], `CSCC[C@H](NC(=O)[C@H](CC(C)C)NC(=O)[C@H](Cc1ccc(O)cc1)NC(=O)[C@@H](N)CCCNC(=N)N)C(=O)N[C@@H](CCC(=O)O)C(=O)N[C@@H](Cc1ccc(O)cc1)C(=O)N[C@@H](C)C(=O)N[C@@H](CCC(=O)O)C(=O)N[C@@H](CCC(N)=O)C(=O)N[C@@H](C)C(=O)N[C@@H](CCCCN)C(=O)N[C@@H](CCCNC(=N)N)C(=O)N[C@@H](CC(=O)O)C(=O)N[C@@H](C)C(=O)N[C@@H](CCCCN)C(=O)N[C@@H](CCCNC(=N)N)C(=O)N[C@@H](C)C(=O)N[C@@H](Cc1ccc(O)cc1)C(=O)N[C@@H](CCCNC(=N)N)C(=O)N[C@@H](CCCNC(=N)N)C(N)=O` [Guavanin 10] (H-RYLMEYAEQAKRDAKRAYRR-NH2) returned an MIC of 200 µg/mL (≈ 77.7 µM). For the same compound, the Hemolysis in the series with human erythrocytes was above 200 µg/mL. As for `N=C(N)NCCC[C@H](NC(=O)CNC(=O)[C@H](CO)NC(=O)CNC(=O)[C@H](Cc1ccc(O)cc1)NC(=O)CNC(=O)CNC(=O)CNC(=O)[C@H](Cc1ccc(O)cc1)NC(=O)[C@H](CCCNC(=N)N)NC(=O)CNC(=O)CNC(=O)CNC(=O)[C@H](Cc1ccc(O)cc1)NC(=O)CNC(=O)CNC(=O)[C@H](Cc1ccc(O)cc1)NC(=O)CNC(=O)[C@@H](N)Cc1ccc(O)cc1)C(=O)NCC(N)=O` [Fragment 3 (hydrophobicity)] (H-YGYGGYGGGRYGGGYGSGRG-NH2), in series [1], the MIC is above 200 µg/mL. The compound also registered a Hemolysis in the series on human erythrocytes above 200 µg/mL. In turn, `CC[C@H](C)[C@H](NC(=O)[C@H](CCCNC(=N)N)NC(=O)[C@H](CC(N)=O)NC(=O)[C@H](Cc1ccccc1)NC(=O)[C@H](Cc1ccc(O)cc1)NC(=O)[C@H](CCCNC(=N)N)NC(=O)[C@H](Cc1ccccc1)NC(=O)[C@H](C)NC(=O)[C@H](CCC(=O)O)NC(=O)[C@H](CCC(=O)O)NC(=O)[C@H](Cc1ccc(O)cc1)NC(=O)[C@H](CCSC)NC(=O)[C@H](CCC(=O)O)NC(=O)[C@H](CCSC)NC(=O)[C@H](CC(C)C)NC(=O)[C@H](CCCCN)NC(=O)[C@@H](N)CCCNC(=N)N)C(=O)N[C@@H](CO)C(=O)N[C@@H](CCCNC(=N)N)C(=O)N[C@@H](CCCNC(=N)N)C(N)=O` [Guavanin 5] (H-RKLMEMYEEAFRYFNRISRR-NH2) registered an MIC in series [1] of 100 µg/mL (≈ 37.1 µM). This compound also yielded a Hemolysis in the series on human erythrocytes above 200 µg/mL. In series [1], `CC[C@H](C)[C@H](NC(=O)CN)C(=O)NCC(=O)N[C@@H](CCCCN)C(=O)N[C@@H](Cc1ccccc1)C(=O)N[C@@H](CC(C)C)C(=O)N[C@@H](Cc1c[nH]cn1)C(=O)N[C@@H](CO)C(=O)N[C@@H](C)C(=O)N[C@@H](CCCCN)C(=O)N[C@@H](CCCCN)C(=O)N[C@@H](Cc1ccccc1)C(=O)NCC(=O)N[C@@H](CCCCN)C(=O)N[C@@H](C)C(=O)N[C@@H](Cc1ccccc1)C(=O)N[C@H](C(=O)NCC(=O)N[C@@H](CCC(=O)O)C(=O)N[C@H](C(=O)N[C@@H](CCSC)C(=O)N[C@@H](CC(N)=O)C(=O)N[C@@H](CO)C(N)=O)[C@@H](C)CC)C(C)C` [Magainin 2, reference compound] (H-GIGKFLHSAKKFGKAFVGEIMNS-NH2) registered an MIC of 100 µg/mL (≈ 40.6 µM).

The values are drawn from publication PMC5902452, “In silico optimization of a guava antimicrobial peptide enables combinatorial exploration for peptide design” (Nature Communications, 2018).
